The results in this text go back to paper PMC11191602, “A novel and selective fluorescent ligand for the study of adenosine A2B receptors” (Pharmacology Research & Perspectives, 2024).

SMILES strings stand for the structures. Where two headings read alike, the source gives them in different places.

One assay concerns the target T1, NLuc‐A2BR (Homo sapiens, UniProt P29275).
T1 construct: expressed in transfected cells
T1 sequence (P29275 1-332): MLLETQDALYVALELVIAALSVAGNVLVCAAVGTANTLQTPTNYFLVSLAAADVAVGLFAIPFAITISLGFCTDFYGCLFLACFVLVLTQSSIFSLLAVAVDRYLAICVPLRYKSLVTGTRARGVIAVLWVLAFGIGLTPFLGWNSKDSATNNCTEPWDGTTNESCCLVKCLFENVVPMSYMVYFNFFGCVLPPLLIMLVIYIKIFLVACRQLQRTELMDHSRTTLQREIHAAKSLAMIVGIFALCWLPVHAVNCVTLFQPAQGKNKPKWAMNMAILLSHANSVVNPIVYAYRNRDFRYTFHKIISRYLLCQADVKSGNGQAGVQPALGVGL
The experiment in a line: NanoBRET ligand‐binding kinetics of 200 nM PSB603‐BY630 in HEK293G cells expressing NLuc‐A2BR. As to the method: (§1) Saturation and competition binding assays were performed as previously described.[36] Briefly, cells were seeded in 96‐well white clear‐bottomed Greiner plates pre‐treated with 10 μg/mL poly‐D‐lysine (Sigma‐Aldrich, Missouri USA) at a density of 30 000–35 000 cells per well in DMEM supplemented with 10% FBS. The following day medium was removed and cells were incubated with PSB603‐BY630 in the presence or absence of 1 μM MRS1706 (saturation binding assays) or competing ligand in the presence of 50 nM PSB603‐BY630 (competition binding assays) in HEPES buffered saline solution (HBSS; 145 mM NaCl, 5 mM KCl, 1.3 mM CaCl2, 1 mM MgSO4, 10 mM HEPES, 2 mM sodium pyruvate, 1.5 mM NaHCO3, 10 mM D‐glucose, pH 7.45) with 0.1% bovine serum albumin for 1 h at 37°C. The NanoLuc substrate, furimazine (Promega Corporation, Wisconsin, USA), was then added to each well (1:400 dilution) and the plate was incubated for 10 min in the dark at 37°C. The resulting bioluminescence resonance energy transfer (BRET) was measured using a PHERAstar FS plate reader (BMG Labtech) at 37°C. For each well, filtered light emissions at 460 nm (80 nm bandpass) and >610 nm (longpass) for the BODIPY630/650 ligand were simultaneously measured. BRET ratios were calculated by dividing the 610 nm emission by the 460 nm emission. All conditions were performed in 2–6 replicates within each plate. For kinetic experiments, cells were preincubated for 10 min with 1:400 dilution of furimazine prior to addition of 200 nM PSB603‐BY630 and BRET ratios determined every 0.5 min. At 60 min, 10 μM MRS‐1706 was added and the ligand‐binding kinetics followed for a further 60 min.
For kinetic binding experiments, the BRET ratio obtained in the absence of fluorescent ligand was determined for each time point and subtracted from the total binding to obtain baseline‐corrected values for total binding at each time point. 60 min after addition of 200 nM PSB603‐BY630, 10 μM MRS‐1706 was added and the dissociation data fitted to the following equation to obtain values for the dissociation rate constant (k off) in min^−1: Y=Yo−NS.e^−koff.t+NS where [Yo] is the binding at time 60 min (when 10 μM MRS‐1706 was added), NS is the non‐specific binding at infinite time, k off is dissociation rate constant. The residence time in min was then calculated as the reciprocal of k off.

Assay [1] addresses T2, human A2BR tagged with N‐terminal nanoluciferase (NLuc‐A2BR) (Homo sapiens, UniProt P29275).
T2 construct: expressed in transfected cells
T2 sequence (P29275 1-332): T1 sequence (P29275 1-332)
The experiment in a line: NanoBRET saturation binding of PSB603‐BY630 in live HEK293G cells stably expressing NLuc‐A2BR. The settings on record: non‐specific binding defined with 1 μM MRS‐1706, 1 h 37°C, mean of five experiments. As to the method:
as §1, with “The NanoLuc substrate, furimazine (Promega Corporation, Wisconsin, USA), was then added to each well (1:400 dilution) and the plate was incubated for 10 min in the dark at 37°C.” left out, “All conditions were performed in 2–6 replicates within each plate.” left out, “At 60 min, 10 μM MRS‐1706 was added and the ligand‐binding kinetics followed for a further 60 min.” left out
Data were analyzed using Prism 7.4 software (GraphPad, San Diego, USA). […]

A further assay concerns the target T3, endogenous A2BR (Homo sapiens, UniProt P29275).
T3 construct: HEK293G cells that express the cAMP biosensor Glosensor also endogenously express both A2BR and A2AR; host or cells: HEK293G
T3 sequence (P29275 1-332): T1 sequence (P29275 1-332)
Put plainly: cAMP GloSensor luminescence assay in HEK293G cells endogenously expressing A2BR. The format is cell-based. The settings on record: 20 nM and 200 nM PSB603‐BY630, endogenous A2BR. As to the method:
The cAMP GloSensor™ luminescence assay was performed according to the manufacturer's instructions (Promega Corporation, Madison, WI, USA). Briefly, after 24 h incubation at 37°C and 5% CO2 after cell plating (40 000 cells/well in 100 μL), medium was aspirated from each well of the 96‐well plate. Cells were incubated in 50 μL HEPES buffered saline solution (HBSS; 2 mM sodium pyruvate, 145 mM NaCl, 10 mM D‐glucose, 5 mM KCl, 1 mM MgSO4.7H2O, 10 mM HEPES, 1.3 mM CaCl2, 1.5 mM NaHCO3 in double‐distilled water, pH 7.45) containing 3% GloSensor™ cAMP reagent at 37°C for 1.5 h. For agonist studies, an initial baseline luminescence read was made at time zero, the plate was then removed from the plate‐reader and a further 50 μL HBSS containing agonist (2× final concentration) or HBSS (vehicle control) added. Luminescence was measured on an open channel (gain of 3600) immediately after these additions, and then continuously over 60 min, reading each well once every minute, by a PHERAstar FSX microplate reader (BMG Labtech, Offenburg, Germany) at 37°C. Increases in luminescence are indicative of intracellular cAMP accumulation, thus the temporal changes in relative cytosolic cAMP concentration were measured upon agonist or vehicle addition. Antagonist action was determined following 30 min pre‐incubation of HBSS in the presence of 20 and 200 nM PSB603‐BY630 and read as above. All conditions were performed in triplicates within each plate.

Take `CCCn1c(=O)[nH]c2[nH]c(-c3ccc(S(=O)(=O)N4CCN(c5ccc(OCCNC(=O)CCCCCNC(=O)COc6ccc(/C=C/C7=[N+]8C(=Cc9ccc(-c%10cccs%10)n9[B-]8(F)F)C=C7)cc6)cc5)CC4)cc3)nc2c1=O` [PSB603‐BY630]: the koff at NLuc‐A2BR (200 nM PSB603‐BY630, 10 μM MRS‐1706 at 60 min, single representative experiment (Figure 5), read-out: K off in representative experiment (converted)) is 0.000933 s⁻¹; at NLuc‐A2BR (200 nM PSB603‐BY630, dissociation initiated with 10 μM MRS‐1706 at 60 min, 37°C, 5 experiments, read-out: dissociation rate constant k off (mean) (converted)), 0.00108 s⁻¹. Besides, on NLuc‐A2BR (200 nM PSB603‐BY630, 37°C), the “time to reach binding equilibrium” value is no more than 60 min. For the same compound, the residence time at NLuc‐A2BR (reciprocal of k off, 37°C) stood at 15.4 min. Moreover, the Kd in assay [1] is 18.3 nM. Besides, the “effect on cAMP concentration‐response curve to BAY 60–6583” value at endogenous A2BR is “concentration‐dependent reduction in the maximal response to BAY 60–6583 without altering the EC50”.

What is called Kd is the concentration at which binding is half-saturated. Lower therefore signals a tighter complex.
